From patent US10889812B2, “Short non-coding protein regulatory RNAs (sprRNAs) and methods of use” (University of Maryland, Baltimore, priority 2014, dated 2021)

Experiments:
p-ERM = p-ERM protein levels in HBE4 cells (Western blot); format: cell-based, human; conditions: following treatment
HBE4 cells = assay: Cell cycle analysis by flow cytometry, HBE4 cells synchronized at S phase; format: cell-based, human; conditions: measured every 2 hrs, vs Scr
Protocol: We then wanted to determine whether piR-L-163 (SEQ ID NO:282) plays a functional role in human bronchial epithelial cells. We treated HBE4 cells as well as primary normal human bronchial epithelial (NHBE) cells with piR-L-163 complementary DNA oligonucleotides (Ant-163) (SEQ ID NO:496) or RNA oligonucleotides (Ant-163R) (SEQ ID NO:497) in the experiment. […] Cell cycle distributions were measured every 2 hrs.
Cell cycle distribution was analyzed by Flow Cytometry (Becton-Dickinson). Cells were synchronized in growth factor-free Keratinocyte-SFM with 2 mM Thymidine (Catalog No. T1895, Sigma-Aldrich) for 24 hrs. Transfection is performed using Lipofectamine™ RNAiMAX (Invitrogen) according to its manual, and the final concentration of annealed oligo RNAs is 400 nM. Four hour after transfection, culture medium was replaced by complete Keratinocyte-SFM supplemented with L-Glutamine, prequalified human recombinant EGF 1-53 and BPE. Cells were harvested at different time points, washed in phosphate-buffer saline (PBS), fixed with ice-cold 70% ethanol, and strained in PI/RNase solution (BD Pharmigen). The samples were analyzed on a FACScan flow cytometer in combination with BD lysis software (Becton-Dickinson).

[1] = molecular target: T1, wild-type human moesin (Moesin-WT) (Homo sapiens, UniProt P26038); assay: IP/RT-PCR binding to introduced moesin in H522 cells; conditions: H522 cells co-transfected
T1 construct: expressed in transfected cells; host or cells: H522 cells, pcDNA3.1(+) plasmid
Description: (§1) To determine potential element of ERM proteins critical for their binding with piR-L-163, we analyzed human and Drosophila moesin sequences using BindN (http://bioinfo.ggc.org/bindn/) and identified RRRKPDT (SEQ ID NO:488) at position 293-299 as a candidate RNA binding element (FIG. 12a, b). We then constructed plasmids containing either wild-type human moesin (Moesin-WT) or a mutant form of moesin with RRRKPDT (SEQ ID NO:488) deletion (Moesin-DM). Both plasmids produce high levels of moesin proteins in the transfected cells (FIG. 5d). We used two cell lines (H522 and HBE4) to test if this element contributes to the binding between moesin and piR-L-163. H522 cells expressed extremely low level of endogenous p-ERM (FIG. 5c) and very low level of piR-L-163 (FIG. 11a). H522 cells transfected with piR-L-163 were simultaneously transfected with either Moesin-WT or Moesin-DM to determine the potential binding ability of the introduced moesin proteins with piR-L-163. We also used the non-functional piR-L-163M1 mutant to replace piR-L-163 in the experiment as a negative control. […] We next transfected HBE4 cells which expressed both p-ERM and piR-L-163 (FIG. 4e and FIG. 11a) with either Moesin-WT or Moesin-DM after knocked down the endogenous moesin in the cells. […]

[2] = molecular target: T2, mutant form of moesin with RRRKPDT deletion (Moesin-DM) (Homo sapiens, UniProt P26038, DEL293-299); assay: as above; conditions: H522 cells co-transfected
T2 construct: expressed in transfected cells; host or cells: H522 cells, pcDNA3.1(+) plasmid
Description: as §1

T2 sequence (P26038 with tags, fused parts or gaps DEL293-299): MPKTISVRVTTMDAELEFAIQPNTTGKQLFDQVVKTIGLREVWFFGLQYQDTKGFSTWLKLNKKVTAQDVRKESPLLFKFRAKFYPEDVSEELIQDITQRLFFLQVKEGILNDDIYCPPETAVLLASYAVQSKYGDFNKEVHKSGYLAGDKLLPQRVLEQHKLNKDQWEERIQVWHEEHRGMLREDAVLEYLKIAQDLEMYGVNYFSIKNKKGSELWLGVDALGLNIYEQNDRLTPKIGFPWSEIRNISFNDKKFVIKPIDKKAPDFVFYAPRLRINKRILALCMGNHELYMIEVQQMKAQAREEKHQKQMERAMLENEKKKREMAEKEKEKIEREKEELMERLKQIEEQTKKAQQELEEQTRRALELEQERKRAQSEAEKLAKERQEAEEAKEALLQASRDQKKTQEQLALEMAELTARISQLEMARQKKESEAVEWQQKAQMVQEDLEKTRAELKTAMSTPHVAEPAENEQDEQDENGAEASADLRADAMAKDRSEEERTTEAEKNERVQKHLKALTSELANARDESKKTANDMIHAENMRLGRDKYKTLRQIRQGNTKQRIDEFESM
T1 sequence (P26038 whole entry): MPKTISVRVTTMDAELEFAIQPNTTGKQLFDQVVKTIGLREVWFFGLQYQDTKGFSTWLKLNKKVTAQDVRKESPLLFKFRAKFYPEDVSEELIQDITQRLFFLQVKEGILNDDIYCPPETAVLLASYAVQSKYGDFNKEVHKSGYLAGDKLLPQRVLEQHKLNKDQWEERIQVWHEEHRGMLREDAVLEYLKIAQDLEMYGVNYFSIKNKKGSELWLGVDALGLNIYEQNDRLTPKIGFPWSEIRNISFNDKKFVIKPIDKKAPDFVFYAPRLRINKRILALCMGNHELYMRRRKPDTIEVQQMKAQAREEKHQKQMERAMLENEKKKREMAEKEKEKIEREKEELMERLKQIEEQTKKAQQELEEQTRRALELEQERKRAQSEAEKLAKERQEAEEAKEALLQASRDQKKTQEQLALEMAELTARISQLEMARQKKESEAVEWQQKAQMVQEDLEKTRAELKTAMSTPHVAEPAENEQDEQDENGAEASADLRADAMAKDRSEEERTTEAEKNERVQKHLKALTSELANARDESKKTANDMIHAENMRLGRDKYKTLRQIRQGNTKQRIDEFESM

Substance	p-ERM protein levels (p-ERM)	cell cycle distribution (HBE4 cells)	binding to Moesin-WT [1]	binding to Moesin-DM [2]
Ant-163: DNA sequence antisense to piR-L-163, SEQ ID NO:496, 5′-GGTCAGAGAATCAAAGTAACATCATGATAT-3′ (DNA, backbone and methylation of C not given here)	not significantly changed	accelerated DNA synthesis and G2-M accumulation	–	–
piR-L-163: sprRNA, SEQ ID NO:282; piRNA-L aligned to intron 10 of LAMC2; AUAUCAUGAUGUUACUUUGAUUCUCUGACC with 3′ 2′-O-methylation (listed as RNA, chemistry not fully specified; listed as Homo sapiens)	–	–	bound to piR-L-163	failed to bind
